Assay results: ChEMBL document CHEMBL3885861, “Open TG-GATES”

Organism: Rattus norvegicus
Assay: Open TG-GATES - Regimen: Single
Format: toxicity, organism-based, Sprague-Dawley
Design: regimen Single, gender Male, age 6 weeks
Conditions: in vivo, iv, 0 mg/kg, route intravenous injection, dose level Control; for APTT / Bas / Eos / Fbg / Hb / Ht / Lym / MCH / MCHC / MCV / Mono / Neu / PT / Plat / RBC / Ret / WBC: tissue Blood; for KIDNEY_L / KIDNEY_R / KIDNEY_TOTAL: tissue Kidney; for LIVER: tissue Liver; for A/G / ALP / ALT / AST / BUN / CRE / Ca / Cl / DBIL / GLC / IP / K / LDH / Na / PL / RALB / TBIL / TC / TG / TP / gamma-GTP: tissue Plasma

## NCCBr [BROMOETHANAMINE]
3 h
  TERMINAL_BW: 221.8 g
  APTT: 22.1 s
  Bas: 0%
  Eos: 0.6%
  Fbg: 305.4 mg/dL
  Hb: 13.4 g/dL
  Ht: 39.5%
  Lym: 82.4%
  MCH: 22.5 pg
  MCHC: 33.9%
  MCV: 66.4 fL
  Mono: 2.2%
  Neu: 14.2%
  PT: 16.2 s
  Plat: 118.2 x10_4/uL
  RBC: 594.4 x10_4/ul
  Ret: 6.3%
  WBC: 94.3 x10_2/uL
  KIDNEY_L: 1 g
  KIDNEY_R: 1 g
  KIDNEY_TOTAL: 2 g
  LIVER: 10.5 g
  A/G: 1.2
  ALP: 1743.8 IU/L
  ALT: 43.2 IU/L
  AST: 76.2 IU/L
  BUN: 13.2 mg/dL
  CRE: 0.1 mg/dL
  Ca: 10.8 mg/dL
  Cl: 105.4 meq/L
  DBIL: 0 mg/dL
  GLC: 188.4 mg/dL
  IP: 7.5 mg/dL
  K: 4.1 meq/L
  LDH: 174.6 IU/L
  Na: 142.2 meq/L
  PL: 131.8 mg/dL
  RALB: 3 g/dL
  TBIL: 0.018 mg/dL
  TC: 70.2 mg/dL
  TG: 79.8 mg/dL
  TP: 5.4 g/dL
  gamma-GTP: 1.6 IU/L
6 h
  TERMINAL_BW: 213.6 g
  APTT: 23.7 s
  Bas: 0%
  Eos: 0.8%
  Fbg: 313.6 mg/dL
  Hb: 13.5 g/dL
  Ht: 39.2%
  Lym: 80%
  MCH: 21.6 pg
  MCHC: 34.4%
  MCV: 62.7 fL
  Mono: 3%
  Neu: 15.8%
  PT: 15.8 s
  Plat: 121.6 x10_4/uL
  RBC: 624.8 x10_4/ul
  Ret: 6.1%
  WBC: 83.9 x10_2/uL
  KIDNEY_L: 0.9 g
  KIDNEY_R: 1 g
  KIDNEY_TOTAL: 1.9 g
  LIVER: 9.2 g
  A/G: 1.1
  ALP: 1411.4 IU/L
  ALT: 39 IU/L
  AST: 71.2 IU/L
  BUN: 11 mg/dL
  CRE: 0.1 mg/dL
  Ca: 10.3 mg/dL
  Cl: 104.6 meq/L
  DBIL: 0 mg/dL
  GLC: 195.8 mg/dL
  IP: 9.7 mg/dL
  K: 4.1 meq/L
  LDH: 189.6 IU/L
  Na: 141 meq/L
  PL: 145.2 mg/dL
  RALB: 2.9 g/dL
  TBIL: 0.014 mg/dL
  TC: 87.2 mg/dL
  TG: 47.8 mg/dL
  TP: 5.4 g/dL
  gamma-GTP: 1.6 IU/L
9 h
  TERMINAL_BW: 218.3 g
  APTT: 22.5 s
  Bas: 0%
  Eos: 0.8%
  Fbg: 317.8 mg/dL
  Hb: 13.3 g/dL
  Ht: 39%
  Lym: 78.6%
  MCH: 21.3 pg
  MCHC: 34%
  MCV: 62.7 fL
  Mono: 2%
  Neu: 18%
  PT: 16.3 s
  Plat: 128.4 x10_4/uL
  RBC: 623.8 x10_4/ul
  Ret: 6.4%
  WBC: 84.9 x10_2/uL
  KIDNEY_L: 0.9 g
  KIDNEY_R: 1 g
  KIDNEY_TOTAL: 1.9 g
  LIVER: 9.1 g
  A/G: 1.2
  ALP: 1721.2 IU/L
  ALT: 33.4 IU/L
  AST: 64.6 IU/L
  BUN: 13.6 mg/dL
  CRE: 0.2 mg/dL
  Ca: 10.4 mg/dL
  Cl: 106.4 meq/L
  DBIL: 0.002 mg/dL
  GLC: 188.8 mg/dL
  IP: 9.6 mg/dL
  K: 4.2 meq/L
  LDH: 152.6 IU/L
  Na: 140.6 meq/L
  PL: 124.4 mg/dL
  RALB: 2.9 g/dL
  TBIL: 0.022 mg/dL
  TC: 68.8 mg/dL
  TG: 63.4 mg/dL
  TP: 5.4 g/dL
  gamma-GTP: 1.6 IU/L
24 h
  TERMINAL_BW: 226.9 g
  APTT: 21.5 s
  Bas: 0%
  Eos: 0.8%
  Fbg: 316.6 mg/dL
  Hb: 13.6 g/dL
  Ht: 39.1%
  Lym: 79.2%
  MCH: 21.2 pg
  MCHC: 34.7%
  MCV: 61.1 fL
  Mono: 2.6%
  Neu: 16.2%
  PT: 16.4 s
  Plat: 126.9 x10_4/uL
  RBC: 640.8 x10_4/ul
  Ret: 5.5%
  WBC: 103.5 x10_2/uL
  KIDNEY_L: 1 g
  KIDNEY_R: 1 g
  KIDNEY_TOTAL: 2 g
  LIVER: 10.4 g
  A/G: 1.1
  ALP: 1595.2 IU/L
  ALT: 41.4 IU/L
  AST: 71 IU/L
  BUN: 18 mg/dL
  CRE: 0.2 mg/dL
  Ca: 10.8 mg/dL
  Cl: 106 meq/L
  DBIL: 0 mg/dL
  GLC: 191.6 mg/dL
  IP: 6.8 mg/dL
  K: 4.9 meq/L
  LDH: 222.8 IU/L
  Na: 140.6 meq/L
  PL: 147.6 mg/dL
  RALB: 2.9 g/dL
  TBIL: 0.006 mg/dL
  TC: 75.8 mg/dL
  TG: 134.2 mg/dL
  TP: 5.5 g/dL
  gamma-GTP: 2 IU/L
